Tests used:
human recombinant HDAC6 = biological target: T1, human recombinant HDAC6 (Homo sapiens, UniProt Q9UBN7); test: HDAC6 enzyme activity inhibition (HDAC Fluorimetric Drug Discovery Kit); assay type: biochemical; details: HDAC1 versus HDAC6
T1 construct: purchased Calbiochem Inc. 382180
T1 sequence (Q9UBN7 1-1215): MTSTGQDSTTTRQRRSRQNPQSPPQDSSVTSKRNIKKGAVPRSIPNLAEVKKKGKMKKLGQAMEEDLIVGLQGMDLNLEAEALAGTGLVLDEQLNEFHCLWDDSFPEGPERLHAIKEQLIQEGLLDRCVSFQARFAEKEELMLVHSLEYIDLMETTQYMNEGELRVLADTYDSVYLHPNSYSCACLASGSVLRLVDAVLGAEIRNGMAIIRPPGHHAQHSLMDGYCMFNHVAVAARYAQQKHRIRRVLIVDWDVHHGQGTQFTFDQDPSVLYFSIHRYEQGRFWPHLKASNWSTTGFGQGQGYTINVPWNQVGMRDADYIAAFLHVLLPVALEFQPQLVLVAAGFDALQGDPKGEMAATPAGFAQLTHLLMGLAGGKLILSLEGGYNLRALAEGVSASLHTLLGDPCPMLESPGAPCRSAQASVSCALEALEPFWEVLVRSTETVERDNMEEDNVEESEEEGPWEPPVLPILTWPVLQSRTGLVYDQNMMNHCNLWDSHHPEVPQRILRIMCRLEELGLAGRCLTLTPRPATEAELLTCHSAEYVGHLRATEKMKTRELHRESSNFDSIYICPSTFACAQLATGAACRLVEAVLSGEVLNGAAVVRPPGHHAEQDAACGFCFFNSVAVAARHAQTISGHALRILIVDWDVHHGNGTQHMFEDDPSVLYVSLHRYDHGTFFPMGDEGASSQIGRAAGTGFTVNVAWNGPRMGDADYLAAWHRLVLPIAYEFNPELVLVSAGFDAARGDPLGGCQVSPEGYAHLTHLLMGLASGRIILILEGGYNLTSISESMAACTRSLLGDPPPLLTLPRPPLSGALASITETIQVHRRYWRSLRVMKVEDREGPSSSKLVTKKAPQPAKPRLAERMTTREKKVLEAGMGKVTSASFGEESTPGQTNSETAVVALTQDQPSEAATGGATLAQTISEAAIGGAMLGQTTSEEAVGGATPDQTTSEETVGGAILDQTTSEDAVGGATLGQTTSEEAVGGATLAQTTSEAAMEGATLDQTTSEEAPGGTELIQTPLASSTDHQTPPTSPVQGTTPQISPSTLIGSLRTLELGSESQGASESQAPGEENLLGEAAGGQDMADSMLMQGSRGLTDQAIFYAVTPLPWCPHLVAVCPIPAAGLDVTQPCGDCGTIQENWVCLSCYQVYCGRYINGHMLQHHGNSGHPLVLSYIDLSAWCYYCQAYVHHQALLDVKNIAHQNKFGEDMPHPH
Method: (§1) An experiment was conducted to identify the selectivity of the 1,3,4-oxadiazole triazole compound of the present invention to HDAC6 through an experiment on HDAC1 and HDAC6 enzyme activity inhibition.
(§2) The HDAC enzyme activity was measured with HDAC Fluorimetric Drug Discovery Kit (BML-AK511, 516) of Enzo Life Science, Inc. For the test on the HDAC1 enzyme activity, human recombinant HDAC1 (BML-SE456) was used as an enzyme source and Fluor de Lys®-“SIRT1 (BNL-KI177)” was used as a substrate. A 5-fold dilution of the compound was divided into a 96-well plate, after which 0.3 μg of the enzyme and 10 μM of the substrate were inserted into each well and subjected to reaction at 30° C. for 60 minutes, such that Fluor de Lys® Developer II (BML-KI176) was inserted thereinto and subjected to reaction for 30 minutes and finished. After that, a fluorescence value (Ex 360, Em 460) was measured with a multi-plate reader (Flexstation 3, Molecular Device). An experiment on HDAC6 enzyme was conducted in accordance with the same protocol as in the HDAC1 enzyme activity test method by using human recombinant HDAC6 (382180) of Calbiochem Inc. For final result values, each IC50 value was calculated with GraphPad Prism 4.0 program.

human recombinant HDAC1 = biological target: T2, human recombinant HDAC1 (Homo sapiens, UniProt Q13547); test: HDAC1 enzyme activity inhibition (HDAC Fluorimetric Drug Discovery Kit); assay type: biochemical; details: human recombinant HDAC1, Fluor de Lys substrate 10 μM, 30° C. 60 minutes
T2 construct: purchased Enzo Life Science, Inc. BML-SE456
T2 sequence (Q13547 whole entry): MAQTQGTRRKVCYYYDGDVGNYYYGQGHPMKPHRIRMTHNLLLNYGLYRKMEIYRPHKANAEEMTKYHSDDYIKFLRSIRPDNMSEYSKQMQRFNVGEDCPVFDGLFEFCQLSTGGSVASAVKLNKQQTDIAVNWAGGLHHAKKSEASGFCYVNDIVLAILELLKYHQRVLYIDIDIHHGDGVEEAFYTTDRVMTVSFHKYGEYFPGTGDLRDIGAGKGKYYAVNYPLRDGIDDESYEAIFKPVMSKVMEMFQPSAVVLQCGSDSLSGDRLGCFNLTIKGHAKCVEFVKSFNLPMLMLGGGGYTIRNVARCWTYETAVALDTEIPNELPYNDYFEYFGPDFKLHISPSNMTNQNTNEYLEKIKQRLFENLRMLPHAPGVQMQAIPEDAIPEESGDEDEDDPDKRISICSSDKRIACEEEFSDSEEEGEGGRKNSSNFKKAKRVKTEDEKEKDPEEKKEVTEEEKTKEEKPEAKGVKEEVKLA
Method: as §1, §2

Question: What does the source list for `FC(F)c1nnc(-c2ccc(Cn3cc(-c4ccc(CN5CCC5)cn4)nn3)nc2)o1` [Compound 2, 2-(6-((4-(5-(azetidin-1-ylmethyl)pyridin-2-yl)-1H-1,2,3-triazol-1-yl)methyl)pyridin-3-yl)-5-(difluoromethyl)-1,3,4-oxadiazole]?
Answer: HDAC6 selectivity (fold) (human recombinant HDAC6): 2252 fold; IC50 (human recombinant HDAC1): > 50 µM

Question: Which “HDAC6 selectivity (fold)” value (human recombinant HDAC6) does the source give for `FC(F)c1nnc(-c2ccc(Cn3cc(-c4ccc(CN5CCCC5)cn4)nn3)nc2)o1` [Compound 3, 2-(difluoromethyl)-5-(6-((4-(5-(pyrrolidin-1-ylmethyl)pyridin-2-yl)-1H-1,2,3-triazol-1-yl)methyl)pyridin-3-yl)-1,3,4-oxadiazole] here?
Answer: 1712 fold

Question: What about the IC50 (human recombinant HDAC1) of the same compound?
Answer: > 50 µM

Question: With `CC1CCN(Cc2ccc(-c3cn(Cc4ccc(-c5nnc(C(F)F)o5)cn4)nn3)nc2)CC1` [Compound 4, 2-(difluoromethyl)-5-(6-((4-(5-((4-methylpiperidin-1-yl)methyl)pyridin-2-yl)-1H-1,2,3-triazol-1-yl)methyl)pyridin-3-yl)-1,3,4-oxadiazole] as the compound, how does the “HDAC6 selectivity (fold)” value (human recombinant HDAC6) read?
Answer: 1428 fold

Question: And the IC50 (human recombinant HDAC1)?
Answer: > 50 µM

Question: With `FC(F)c1nnc(-c2ccc(Cn3cc(-c4ccc(CN5CC[C@@H](F)C5)nc4)nn3)nc2)o1` [Compound 5, (R)-2-(difluoromethyl)-5-(6-((4-(6-((3-fluoropyrrolidin-1-yl)methyl)pyridin-3-yl)-1H-1,2,3-triazol-1-yl)methyl)pyridin-3-yl)-1,3,4-oxadiazole] as the compound, how does the “HDAC6 selectivity (fold)” value (human recombinant HDAC6) read?
Answer: 1547 fold

Question: What about the IC50 (human recombinant HDAC1) of the same compound?
Answer: > 50 µM

Question: `CC1(C)CCN(Cc2ccc(-c3cn(Cc4ccc(-c5nnc(C(F)F)o5)cn4)nn3)cn2)CC1` [Compound 6, 2-(difluoromethyl)-5-(6-((4-(6-((4,4-dimethylpiperidin-1-yl)methyl)pyridin-3-yl)-1H-1,2,3-triazol-1-yl)methyl)pyridin-3-yl)-1,3,4-oxadiazole] was tested. Which “HDAC6 selectivity (fold)” value (human recombinant HDAC6) did it give?
Answer: 1730 fold

Question: What about the IC50 (human recombinant HDAC1) of the same compound?
Answer: > 50 µM

Question: For `FC(F)c1nnc(-c2ccc(Cn3cc(-c4ccc(CN5CC[C@H](F)C5)s4)nn3)nc2)o1` [Compound 7, (S)-2-(difluoromethyl)-5-(6-((4-(5-((3-fluoropyrrolidin-1-yl)methyl)thiophen-2-yl)-1H-1,2,3-triazol-1-yl)methyl)pyridin-3-yl)-1,3,4-oxadiazole], which “HDAC6 selectivity (fold)” value (human recombinant HDAC6) is on record?
Answer: 1253 fold

Question: What about the IC50 (human recombinant HDAC1) of the same compound?
Answer: > 50 µM

Question: What does the source list for `FC(F)c1nnc(-c2ccc(Cn3cc(-c4ccc(CN5CC[C@@H](F)C5)s4)nn3)nc2)o1` [Compound 8, (R)-2-(difluoromethyl)-5-(6-((4-(5-((3-fluoropyrrolidin-1-yl)methyl)thiophen-2-yl)-1H-1,2,3-triazol-1-yl)methyl)pyridin-3-yl)-1,3,4-oxadiazole]?
Answer: HDAC6 selectivity (fold) (human recombinant HDAC6): 1048 fold; IC50 (human recombinant HDAC1): > 50 µM

Question: With `CN(C)Cc1cc(-c2cn(Cc3ccc(-c4nnc(C(F)F)o4)cn3)nn2)cs1` [Compound 11, 1-(4-(1-((5-(5-(difluoromethyl)-1,3,4-oxadiazol-2-yl)pyridin-2-yl)methyl)-1H-1,2,3-triazol-4-yl)thiophen-2-yl)-N,N-dimethylmethanamine] as the compound, how does the “HDAC6 selectivity (fold)” value (human recombinant HDAC6) read?
Answer: 1577 fold

Question: What about the IC50 (human recombinant HDAC1) of the same compound?
Answer: > 50 µM

Question: What does the source list for `FC(F)c1nnc(-c2ccc(Cn3cc(-c4csc(CN5CC[C@H](F)C5)c4)nn3)nc2)o1` [Compound 13, (S)-2-(difluoromethyl)-5-(6-((4-(5-((3-fluoropyrrolidin-1-yl)methyl)thiophen-3-yl)-1H-1,2,3-triazol-1-yl)methyl)pyridin-3-yl)-1,3,4-oxadiazole]?
Answer: HDAC6 selectivity (fold) (human recombinant HDAC6): 1893 fold; IC50 (human recombinant HDAC1): > 50 µM

Question: `FC(F)c1nnc(-c2ccc(Cn3cc(-c4csc(CN5CC[C@@H](F)C5)c4)nn3)nc2)o1` [Compound 14, (R)-2-(difluoromethyl)-5-(6-((4-(5-((3-fluoropyrrolidin-1-yl)methyl)thiophen-3-yl)-1H-1,2,3-triazol-1-yl)methyl)pyridin-3-yl)-1,3,4-oxadiazole] was tested. Which “HDAC6 selectivity (fold)” value (human recombinant HDAC6) did it give?
Answer: 1811 fold

Question: What about the IC50 (human recombinant HDAC1) of the same compound?
Answer: > 50 µM

Question: For `FC(F)c1nnc(-c2ccc(Cn3cc(-c4csc(CN5CCC(F)(F)CC5)c4)nn3)nc2)o1` [Compound 16, 2-(difluoromethyl)-5-(6-((4-(5-((4,4-difluoropiperidin-1-yl)methyl)thiophen-3-yl)-1H-1,2,3-triazol-1-yl)methyl)pyridin-3-yl)-1,3,4-oxadiazole], which “HDAC6 selectivity (fold)” value (human recombinant HDAC6) is on record?
Answer: 1237 fold

Question: What about the IC50 (human recombinant HDAC1) of the same compound?
Answer: > 50 µM

Question: `CC1(C)CCN(Cc2ccc(-c3cn(Cc4ccc(-c5nnc(C(F)F)o5)cn4)nn3)nc2)CC1` [Compound 17, 2-(difluoromethyl)-5-(6-((4-(5-((4,4-dimethylpiperidin-1-yl)methyl)pyridin-2-yl)-1H-1,2,3-triazol-1-yl)methyl)pyridin-3-yl)-1,3,4-oxadiazole] was tested. Which “HDAC6 selectivity (fold)” value (human recombinant HDAC6) did it give?
Answer: 1466 fold

Question: What about the IC50 (human recombinant HDAC1) of the same compound?
Answer: > 50 µM

Question: Which results are given for `Fc1ccc(CN2CCCCC2)cc1-c1cn(Cc2ccc(-c3nnc(C(F)F)o3)cn2)nn1` [Compound 18, 2-(difluoromethyl)-5-(6-((4-(2-fluoro-5-(piperidin-1-ylmethyl)phenyl)-1H-1,2,3-triazol-1-yl)methyl)pyridin-3-yl)-1,3,4-oxadiazole]?
Answer: HDAC6 selectivity (fold) (human recombinant HDAC6): 1845 fold; IC50 (human recombinant HDAC1): > 50 µM

Question: What does the source list for `CC1CCN(Cc2ccc(F)c(-c3cn(Cc4ccc(-c5nnc(C(F)F)o5)cn4)nn3)c2)CC1` [Compound 19, 2-(difluoromethyl)-5-(6-((4-(2-fluoro-5-((4-methylpiperidin-1-yl)methyl)phenyl)-1H-1,2,3-triazol-1-yl)methyl)pyridin-3-yl)-1,3,4-oxadiazole]?
Answer: HDAC6 selectivity (fold) (human recombinant HDAC6): 1492 fold; IC50 (human recombinant HDAC1): > 50 µM

Question: `CN(C)Cc1ccc(F)c(-c2cn(Cc3ccc(-c4nnc(C(F)F)o4)cn3)nn2)c1` [Compound 20, 1-(3-(1-((5-(5-(difluoromethyl)-1,3,4-oxadiazol-2-yl)pyridin-2-yl)methyl)-1H-1,2,3-triazol-4-yl)-4-fluorophenyl)-N,N-dimethylmethanamine] was tested. Which “HDAC6 selectivity (fold)” value (human recombinant HDAC6) did it give?
Answer: 1798 fold

Question: And the IC50 (human recombinant HDAC1)?
Answer: > 50 µM

Question: Which “HDAC6 selectivity (fold)” value (human recombinant HDAC6) does the source give for `Fc1ccc(-c2cn(Cc3ccc(-c4nnc(C(F)F)o4)cn3)nn2)cc1CN1CCCC1` [Compound 22, 2-(difluoromethyl)-5-(6-((4-(4-fluoro-3-(pyrrolidin-1-ylmethyl)phenyl)-1H-1,2,3-triazol-1-yl)methyl)pyridin-3-yl)-1,3,4-oxadiazole] here?
Answer: 3401 fold

Question: And the IC50 (human recombinant HDAC1)?
Answer: > 50 µM

Question: How did the “HDAC6 selectivity (fold)” value (human recombinant HDAC6) turn out when `CN(C)Cc1cc(-c2cn(Cc3ccc(-c4nnc(C(F)F)o4)cn3)nn2)ccc1F` [Compound 23, 1-(5-(1-((5-(5-(difluoromethyl)-1,3,4-oxadiazol-2-yl)pyridin-2-yl)methyl)-1H-1,2,3-triazol-4-yl)-2-fluorophenyl)-N,N-dimethylmethanamine] was run?
Answer: 2702 fold

Question: And the IC50 (human recombinant HDAC1)?
Answer: > 50 µM

Question: What does the source list for `Fc1ccc(-c2cn(Cc3ccc(-c4nnc(C(F)F)o4)cn3)nn2)cc1CN1CCCCC1` [Compound 24, 2-(difluoromethyl)-5-(6-((4-(4-fluoro-3-(piperidin-1-ylmethyl)phenyl)-1H-1,2,3-triazol-1-yl)methyl)pyridin-3-yl)-1,3,4-oxadiazole]?
Answer: HDAC6 selectivity (fold) (human recombinant HDAC6): 2577 fold; IC50 (human recombinant HDAC1): > 50 µM

Question: `CC1CCN(Cc2cc(-c3cn(Cc4ccc(-c5nnc(C(F)F)o5)cn4)nn3)ccc2F)CC1` [Compound 25, 2-(difluoromethyl)-5-(6-((4-(4-fluoro-3-((4-methylpiperidin-1-yl)methyl)phenyl)-1H-1,2,3-triazol-1-yl)methyl)pyridin-3-yl)-1,3,4-oxadiazole] was tested. Which “HDAC6 selectivity (fold)” value (human recombinant HDAC6) did it give?
Answer: 2890 fold

Question: What about the IC50 (human recombinant HDAC1) of the same compound?
Answer: > 50 µM
